Assay results reported in ChEMBL document CHEMBL5608213, “Synthesis of furanotriterpenoids from betulin and evaluation of Tyrosyl-DNA phosphodiesterase 1 (Tdp1) inhibitory properties of new semi-synthetic triterpenoids” (Eur J Med Chem, 2024).

Key:
[1] = biological target: Tyrosyl-DNA phosphodiesterase 1 (Homo sapiens, UniProt Q9NUW8); test: Inhibition of Tdp1 (unknown origin) using 5'-[FAM]AACGTCAGGGTCTTCC[BHQ1]-3' as substrate measured every 55 sec by fluorescence based analysis
A549 = test: Cytotoxicity against human A549 cells incubated for 72 hrs by MTT assay; type: functional
HCT-116 = test: Cytotoxicity against human HCT-116 cells incubated for 72 hrs by MTT assay; type: functional
[2] = Cytotoxicity against human HeLa-V cells incubated for 72 hrs by MTT assay; type: functional
HepG2 = test: Cytotoxicity against human HepG2 cells incubated for 72 hrs by MTT assay; type: functional
MCF7 = test: Cytotoxicity against human MCF7 cells incubated for 72 hrs by MTT assay; type: functional
MDA-MB-231 = test: Cytotoxicity against human MDA-MB-231 cells incubated for 72 hrs by MTT assay; type: functional
MDA-MB-453 = test: Cytotoxicity against human MDA-MB-453 cells incubated for 72 hrs by MTT assay; type: functional
[3] = Cytotoxicity against human Mel-MS cells incubated for 72 hrs by MTT assay; type: functional
RD = test: Cytotoxicity against human RD cells incubated for 72 hrs by MTT assay; type: functional
PC-3 = test: Cytotoxicity against human PC-3 cells incubated for 72 hrs by MTT assay; type: functional
[4] = Cytotoxicity against HEK293 cells incubated for 72 hrs by MTT assay; type: toxicity, cell-based; details: human
[5] = Cytotoxicity against human MCF-10A cells incubated for 72 hrs by MTT assay; type: toxicity, cell-based
[6] = Cytotoxicity against human HeLa-V cells assessed as reduction in cell viability incubated for 72 hrs in presence of 0.5 uM topotecan by MTT assay; type: functional
[7] = Cytotoxicity against human HeLa-V cells assessed as cell viability at <=12.5 uM incubated for 72 hrs in presence of 0.5 uM topotecan by MTT assay relative to control; type: functional; details: up to 12.5 µM
[8] = Sensitization of topotecan-induced cytotoxicity against human HeLa-V cells assessed as reduction in cell viability by measuring fold change in topotecan CC50 at 10 uM incubated for 72 hrs by MTT assay relative to topotecan alone; type: functional

Tyrosyl-DNA phosphodiesterase 1, sequence (Q9NUW8 whole entry): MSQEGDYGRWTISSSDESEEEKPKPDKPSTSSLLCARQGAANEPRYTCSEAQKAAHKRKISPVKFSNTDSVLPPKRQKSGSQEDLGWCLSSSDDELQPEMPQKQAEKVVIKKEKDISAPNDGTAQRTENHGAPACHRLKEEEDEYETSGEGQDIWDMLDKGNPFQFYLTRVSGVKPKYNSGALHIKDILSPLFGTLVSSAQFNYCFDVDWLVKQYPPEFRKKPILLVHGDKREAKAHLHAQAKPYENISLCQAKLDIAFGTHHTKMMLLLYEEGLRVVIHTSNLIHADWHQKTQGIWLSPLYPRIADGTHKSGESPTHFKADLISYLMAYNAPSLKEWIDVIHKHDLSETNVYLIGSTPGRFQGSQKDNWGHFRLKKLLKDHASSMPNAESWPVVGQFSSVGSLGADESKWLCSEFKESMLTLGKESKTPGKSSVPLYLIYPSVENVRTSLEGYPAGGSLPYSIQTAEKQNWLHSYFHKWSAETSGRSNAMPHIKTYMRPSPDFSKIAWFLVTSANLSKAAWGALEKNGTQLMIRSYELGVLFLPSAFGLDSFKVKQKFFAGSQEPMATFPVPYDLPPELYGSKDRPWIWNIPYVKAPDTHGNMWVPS

Structure (SMILES) | IC50 [1] [µM] | CC50 (A549) [µM] | CC50 (HCT-116) [µM] | CC50 [2] [µM] | CC50 (HepG2) [µM] | CC50 (MCF7) [µM] | CC50 (MDA-MB-231) [µM] | CC50 (MDA-MB-453) [µM] | CC50 [3] [µM] | CC50 (RD) [µM] | CC50 (PC-3) [µM] | CC50 at 72 h [4] [µM] | CC50 at 72 h [5] [µM] | CC50 [6] [µM] | Activity [7] [%] | fold change (FC) [8]
CC1(C)CC[C@]23CC[C@]4(C)[C@H](CC[C@@H]5[C@@]6(C)O[C@@H](CC#N)C(C)(C)[C@@H]6CC[C@]54C)[C@H]2[C@H]1OC3 | 8 | – | – | – | – | – | – | – | – | – | – | – | – | – | – | –
CC1(C)CC[C@]23CC[C@]4(C)C(CC[C@@H]5C(=O)C(C(C)(C)[C@H](CC#N)OC(=O)Cl)CC[C@]54C)[C@H]2[C@H]1OC3 (some centres not stated) | > 100 | > 100 | > 100 | > 100 | > 100 | > 100 | > 100 | > 100 | > 100 | > 100 | > 100 | > 100 | > 100 | – | – | –
CC(C)[C@@H]1CC[C@]2(COC(=O)c3ccccc3)CC[C@]3(C)[C@H](CC[C@@H]4[C@@]5(C)O[C@H](CC#N)C(C)(C)[C@@H]5CC[C@]43C)[C@@H]12 | 12.1 | > 100 | > 100 | > 100 | > 100 | > 100 | > 100 | > 100 | > 100 | > 100 | > 100 | > 100 | > 100 | – | – | –
CC1(C)CC[C@]23CC[C@]4(C)[C@H](CC[C@@H]5[C@@]6(C)O[C@H](CC#N)C(C)(C)[C@@H]6CC[C@]54C)[C@H]2[C@H]1OC3 | 3.59 | 34 | 90.3 | > 100 | > 100 | 84.9 | > 100 | > 100 | > 100 | > 100 | > 100 | > 100 | > 100 | – | – | –
CC(C)[C@@H]1CC[C@]2(COC(=O)c3ccccc3)CC[C@]3(C)[C@H](CC[C@@H]4[C@@]5(C)C(=O)[C@H]6O[C@H]6C(C)(C)[C@@H]5CC[C@]43C)[C@@H]12 | 3 | > 100 | > 100 | > 100 | > 100 | > 100 | > 100 | > 100 | > 100 | > 100 | > 100 | > 100 | > 100 | – | – | –
CC(C)[C@@H]1CC[C@]2(COC(=O)c3ccccc3)CC[C@]3(C)[C@H](CC[C@@H]4[C@@]5(C)[C@@H](O)C=CC(C)(C)[C@@H]5CC[C@]43C)[C@@H]12 | 9 | > 100 | > 100 | > 100 | > 100 | > 100 | > 100 | > 100 | > 100 | > 100 | > 100 | > 100 | > 100 | – | – | –
CC(C)[C@@H]1CC[C@]2(COC(=O)c3ccccc3)CC[C@]3(C)[C@H](CC[C@@H]4[C@@]5(C)[C@@H](O)[C@H]6O[C@H]6C(C)(C)[C@@H]5CC[C@]43C)[C@@H]12 | 5.1 | > 100 | > 100 | > 100 | > 100 | > 100 | > 100 | > 100 | > 100 | > 100 | > 100 | > 100 | > 100 | – | – | –
C=C1[C@H]2CC[C@@H]3[C@H]4[C@H](C(C)C)CC[C@]4(COC(=O)c4ccccc4)CC[C@@]3(C)[C@]2(C)CC[C@@H]1C(C)(C)[C@@H]1O[C@H]1C#N | 8 | > 100 | > 100 | > 100 | > 100 | > 100 | > 100 | > 100 | > 100 | > 100 | > 100 | > 100 | > 100 | – | – | –
CC(C)[C@@H]1CC[C@]2(COC(=O)c3ccccc3)CC[C@]3(C)[C@H](CC[C@@H]4[C@@]5(C)/C(=N/O)C[C@@H](O)C(C)(C)[C@@H]5CC[C@]43C)[C@@H]12 | 2.9 | 57.7 | > 100 | > 100 | > 100 | > 100 | > 100 | > 100 | > 100 | > 100 | > 100 | > 100 | > 100 | – | – | –
CC(C)[C@@H]1CC[C@]2(COC(=O)c3ccccc3)CC[C@]3(C)[C@H](CC[C@@H]4[C@@]5(C)/C(=N/O)[C@H]6O[C@H]6C(C)(C)[C@@H]5CC[C@]43C)[C@@H]12 | 2 | > 100 | > 100 | 28 | > 100 | > 100 | > 100 | > 100 | > 100 | > 100 | 62.2 | > 100 | > 100 | 13.1 | – | –
CC(C)[C@@H]1CC[C@]2(COCc3ccccc3)CC[C@]3(C)[C@H](CC[C@@H]4C(=O)C(C(C)(C)[C@H](CC#N)OC(=O)Cl)CC[C@]43C)[C@@H]12 (some centres not stated) | 12 | 56.9 | > 100 | > 100 | > 100 | > 100 | > 100 | > 100 | > 100 | > 100 | > 100 | > 100 | > 100 | – | – | –
CC(C)[C@@H]1CC[C@]2(CO)CC[C@]3(C)[C@H](CC[C@@H]4[C@@]5(C)/C(=N/O)C[C@@H](O)C(C)(C)[C@@H]5CC[C@]43C)[C@@H]12 | 2.9 | > 100 | 57.4 | > 100 | > 100 | > 100 | > 100 | > 100 | > 100 | > 100 | > 100 | > 100 | > 100 | – | – | –
CC(C)[C@@H]1CC[C@]2(CO)CC[C@]3(C)[C@H](CC[C@@H]4[C@@]5(C)O[C@H](CC#N)C(C)(C)[C@@H]5CC[C@]43C)[C@@H]12 | 1 | 89.9 | > 100 | 31.6 | > 200 | 39.2 | > 100 | > 100 | > 100 | 79 | > 100 | > 100 | > 100 | 14.8 | ~80 | –
CC(C)[C@@H]1CC[C@]2(COC(=O)c3ccccc3)CC[C@]3(C)[C@H](CC[C@@H]4[C@@]5(C)CC=CC(C)(C)[C@@H]5CC[C@]43C)[C@@H]12 | > 100 | > 100 | > 100 | > 100 | > 100 | > 100 | > 100 | > 100 | > 100 | > 100 | > 100 | > 100 | > 100 | – | – | –
CC(C)[C@@H]1CC[C@]2(COC(=O)c3ccccc3)CC[C@]3(C)[C@H](CC[C@@H]4[C@@]5(C)CC[C@H](O)C(C)(C)[C@@H]5CC[C@]43C)[C@@H]12 | – | > 100 | > 100 | > 100 | > 100 | > 100 | > 100 | > 100 | > 100 | > 100 | > 100 | > 100 | > 100 | – | – | –
C=C1[C@H](C(C)(C)[C@@H](O)CC#N)CC[C@]2(C)[C@@H]1CC[C@@H]1[C@H]3[C@H](C(C)C)CC[C@]3(COC(=O)c3ccccc3)CC[C@]12C | 1.97 | > 100 | > 100 | > 100 | > 100 | > 100 | > 100 | > 100 | > 100 | > 100 | > 100 | > 100 | > 100 | ≤ 35.1 | ~80 | <1.5
CC(C)[C@@H]1CC[C@]2(COC(=O)c3ccccc3)CC[C@]3(C)[C@H](CC[C@@H]4[C@@]5(C)OC(CC#N)C(C)(C)[C@@H]5CC[C@]43C)[C@@H]12 (mixture of isomers) | 7 | 58.6 | > 100 | > 100 | > 100 | > 100 | > 100 | > 100 | > 100 | > 100 | > 100 | > 100 | > 100 | – | – | –
COc1cccc2c1C(=O)c1c(O)c3c(c(O)c1C2=O)C[C@@](O)(C(=O)CO)C[C@@H]3O[C@H]1C[C@H](N)[C@H](O)[C@H](C)O1 [DOXORUBICIN] | – | 2 | 1.3 | 2.67 | 1.8 | 0.4 | 0.34 | 0.04 | 1.3 | 1.3 | 12.6 | 0.4 | 0.5 | – | – | –
CC[C@@]1(O)C(=O)OCc2c1cc1n(c2=O)Cc2cc3c(CN(C)C)c(O)ccc3nc2-1 [TOPOTECAN] | – | – | – | 0.456 | – | – | – | – | – | – | – | – | – | – | – | –
